In PubChem BioAssay AID504765 (Sanford-Burnham Center for Chemical Genomics, 2011):
Calls of active or inactive are those of the source. No rule for the calls is given here.

Target: glucose-6-phosphate dehydrogenase-6-phosphogluconolactonase (Plasmodium falciparum 3D7)
Assay: concentration-dependent PfGluPho enzyme inhibition – biochemical, fluorescence intensity, dose response (AID 504765)
Conditions: Recombinant PfG6PD enzyme, fluorescence intensity (NADPH)

SMILES	IC50
O=C(Cn1sc2ccccc2c1=O)Nc1ccc(Br)cc1	5.16 µM
CC1(C)Cc2c(sc3nc4n(-c5ccccc5)c(=O)c(CCC(=O)O)nn4c(=O)c23)CO1	4.1 µM
COc1ccc(C(=O)Nc2sc3c(c2C(=O)O)CC(C)(C)OC3)cc1	11 µM
O=C1NC(=O)N(c2ccccc2)C(=O)/C1=C/c1ccc([N+](=O)[O-])s1	10 µM
O=[N+]([O-])c1cccc(SSc2cccc([N+](=O)[O-])c2)c1	7.67 µM
COc1cc(CNc2ccc3[nH]c(=O)[nH]c3c2)ccc1OCc1ccccc1	inactive
CCc1ccc(S(=O)(=O)Nc2cc(SCC(=O)O)c(O)c3ccccc23)cc1	5.63 µM
Cc1[nH]c2ccccc2c1/C=N/NC(=O)c1cccc(S(=O)(=O)Nc2ccccc2Cl)c1	8.71 µM
O=C(CNC(=O)c1ccc(Br)cc1)NCC(=O)OCC(=O)c1ccc([N+](=O)[O-])cc1	18.1 µM
COc1cc(/C=N/Nc2nncn2N)ccc1OCc1c(C)no[n+]1[O-]	8.92 µM
N#C/C(C(=O)Nc1ccc(Cl)cc1)=C(/S)Nc1ccccc1	1.89 µM
O=C(CCl)NCCN1C(=O)S/C(=C\c2cccnc2)C1=O	9.89 µM
CCOC(=O)c1c2ccc(OCC(=O)NN)cc2n2ccccc12	15.3 µM
COc1ccc(NC2CCCN(Cc3cccc4cnccc34)C2)cc1OC (configuration not stated)	inactive
Cc1ccc(-c2csc(NC(=O)c3ccccc3F)c2C(=O)O)cc1	8.06 µM
COc1cccc(/C=N/NC(=O)c2c(C)nc3ccc(Br)cn23)c1	2.86 µM
COc1ccc(OCc2nnc3n2N=C(c2ccccc2)C(CC(=O)O)S3)cc1 (configuration not stated)	inactive
C[C@H](CO)N1C[C@H](C)[C@@H](CN(C)C(=O)Nc2ccc(C(F)(F)F)cc2)Oc2c(cccc2N(C)C)C1=O	5.05 µM
O=C1C(Cl)=C(NCCc2ccccc2)C(=O)c2ccccc21	3.32 µM

SMILES	IC50
CC(=O)Nc1ccc(S(=O)(=O)NNc2cccc(C)c2)cc1	inactive
Cc1[nH]c(=S)c(C#N)c(C)c1CCC#N	inactive
O=C(CN1CCN(c2ccc(O)cc2)CC1)Nc1cc(S(=O)(=O)N2CCOCC2)ccc1Cl	inactive
O=c1c2ccccc2sn1-c1ccc(S(=O)(=O)N2CCCCC2)cc1	7.2 µM
Brc1cc2[nH]cnc2c2ccccc12	17.6 µM
Oc1cc(-n2cccn2)c(O)cc1-n1cccn1	6.03 µM
O=[N+]([O-])c1ccc(-[n+]2ccc3ccccc3c2)c([N+](=O)[O-])c1	8.26 µM
Cc1ccc(-c2nn(C)c(=O)c3ccccc23)cc1CNC(=O)/C=C/c1ccccc1	4.14 µM
Clc1nssc1=Nc1nncs1	14.3 µM
COc1ccc(-n2sc3ccccc3c2=O)cc1	1.49 µM
Cc1cc(C)c2sc(NC(=O)C3=COCCO3)nc2c1	11 µM
Cc1ccc(S(=O)(=O)Oc2cccc(/C=N/Nc3ccc(C(=O)O)cc3)c2)cc1	7.01 µM
O=c1c2ccccc2sn1-c1cccc(Cl)c1	4.18 µM
C=CCc1c(C)[nH]c(=S)c(C#N)c1C	15.3 µM
Cc1ccc(-c2nc(N3CCOCC3)s[n+]2-c2ccccc2)cc1	5.65 µM
C(=N\Nc1nc2ccccc2[nH]1)/c1ccccn1	5.24 µM
c1ccc(-c2nc(N3CCOCC3)s[n+]2-c2ccccc2)cc1	3.97 µM
Cc1cccc(C(=O)Nc2nnc(S(=O)(=O)N3CCOCC3)s2)c1	7.44 µM
COc1cc(-c2cc(OC)c(O)c(OC)c2)cc(OC)c1O	8.29 µM

SMILES	IC50
CN(CCO)c1cc(Sc2nc3ccccc3s2)c2nonc2c1[N+](=O)[O-]	11.1 µM
COc1c2ccoc2c(OCC=C(C)C)c2oc(=O)ccc12	inactive
C=CCN1C=C2C(=O)C(C)(OC(=O)CCC(=O)OC)C(=O)C(Br)=C2C=C1c1ccc(OC)cc1 (configuration not stated)	2.79 µM
COc1cc(C(=O)O/N=C2/C=C(C)C(=O)C=C2C)cc(OC)c1OC	11.6 µM
Cc1cccc(C(=O)Nc2sc3c(c2C(=O)O)CCCC3)c1	8.55 µM
O=C1/C(=C\c2ccc([N+](=O)[O-])cc2)CS(=O)(=O)C/C1=C/c1ccc([N+](=O)[O-])cc1	2.95 µM
COc1ccc(CCn2c(NN=C3CCCC3)nc3c2c(=O)[nH]c(=O)n3C)cc1	9.56 µM
C[C@]12CC[C@@H]3c4ccc(O)c(O)c4CC[C@H]3[C@@H]1CC[C@@H]2O	4.02 µM
COc1cc(N=Cc2c(CO)cnc(C)c2O)cc(OC)c1OC	19.6 µM
O=C(Nc1ccc(N2CCN(C(=O)c3ccco3)CC2)c(Cl)c1)c1cc2ccccc2o1	10.3 µM
Nc1ccc(N(CCO)CCO)cc1	4.71 µM
O=C(Nc1nnc(S(=O)(=O)N2CCCCC2)s1)c1ccc(Cl)cc1	6.01 µM
O=C(NC1=CC(=O)c2ccccc2C1=O)c1ccccc1	2.53 µM
CCOc1ccc(NC(=O)Cn2sc3nc(C)cc(C)c3c2=O)cc1	1.85 µM
Cc1ccc(Nc2cc(C)c(O)c(C)c2)cc1	6.16 µM
O=S(=O)(Nc1cccc2cccnc12)c1ccccc1	7.08 µM
C=CCOc1c(Cl)cc(CNc2ccc(N(C)C)cc2)cc1OC	9.87 µM
COc1cc(N=c2ssnc2Cl)cc(OC)c1OC	15.5 µM
CC(C)Cn1c([N+](=O)[O-])nc2c1c(=O)[nH]c(=O)n2C	14.3 µM
